Where two headings read alike, the source gives them in different places.
Biological target: T1, full-length hepatitis C viral protein NS3•4A (Hepatitis C virus genotype 1a, UniProt P27958)
T1 construct: hexa-histidine (N); made in house; host or cells: Sf9 insect cells (baculovirus, pVL1392)
Experiment: biochemical
Design: species or system HCV sub-type strain 1a

[1] = Enzyme Assay 2 (HCV NS3 Peptide Cleavage Assay) activity, apparent Ki class
[2] = Enzyme Assay 2, HCV NS3 Peptide Cleavage Assay, apparent Ki

SMILES	Ki [1] [nM]	other results
CNC(=O)C(=O)[C@H](CC1CC1)NC(=O)[C@@H]1C[C@]2(CC(c3cc(Cl)cc4c3OCOC4)=NO2)CN1C(=O)[C@@H](NC(=O)CC1CCCCC1)C(C)(C)C [Compound 677]	< 100	
CCC[C@H](NC(=O)[C@@H]1C[C@]2(CC(c3cnc(OC)nc3OC)=NO2)CN1C(=O)[C@@H](NC(=O)OC1CCCC1)C(C)(C)C)C(=O)C(=O)NC1CC1 [Compound 678]	100 to 500	
CCC[C@H](NC(=O)[C@@H]1C[C@]2(CC(c3cc(Cl)ccc3OC)=NO2)CN1C(=O)[C@@H](NC(=O)OC1CCCC1)C(C)(C)C)C(=O)C(=O)NC1CC1 [Compound 686]	< 100	
CNC(=O)C(=O)[C@H](CC1CC1)NC(=O)[C@@H]1C[C@]2(CC(c3cc(Cl)cc4c3OCO4)=NO2)CN1C(=O)[C@@H](NC(=O)OC(C)(C)C)C(C)(C)C [Compound 691]	100 to 500	
CNC(=O)C(=O)[C@H](CC1CC1)NC(=O)[C@@H]1C[C@@]2(CC(c3nc(-c4ccccc4)no3)=NO2)CN1C(=O)[C@@H](NC(=O)OC1CCCC1)C(C)(C)C [Compound 694]	100 to 500	
CNC(=O)C(=O)[C@H](CC1CC1)NC(=O)[C@@H]1C[C@]2(CC(c3cccc(Cl)c3)=NO2)CN1C(=O)[C@@H](NC(=O)C1C[C@@H]1c1ccccc1)C(C)(C)C (stereo partly shown) [Compound 695]	< 100	
CNC(=O)C(=O)[C@H](CC1CC1)NC(=O)[C@@H]1C[C@]2(CC(c3cccc(Cl)c3)=NO2)CN1C(=O)[C@@H](NC(=O)[C@@H]1C[C@H]1c1ccccc1)C(C)(C)C [Compound 696]	< 100	
CCC[C@H](NC(=O)[C@@H]1C[C@]2(CC(c3cccc(Cl)c3)=NO2)CN1C(=O)[C@@H](NC(=O)[C@H]1C[C@@H]1c1ccccc1)C(C)(C)C)C(=O)C(=O)NC1CC1 [Compound 697]	< 100	
CC(C)(C)[C@H](NC(=O)[C@H]1C[C@@H]1c1ccccc1)C(=O)N1C[C@@]2(CC(c3cccc(Cl)c3)=NO2)C[C@H]1C(=O)N[C@@H](CC1CC1)C(=O)C(N)=O [Compound 699]	< 100	
CCC[C@H](NC(=O)[C@@H]1C[C@]2(CC(c3cccc(Cl)c3)=NO2)CN1C(=O)[C@@H](NC(=O)OC1CCCCCC1)C(C)(C)C)C(=O)C(=O)NC1CC1 [Compound 706]	< 100	
COc1cc(C)c(C2=NO[C@]3(C2)C[C@@H](C(=O)N[C@@H](CC2CC2)C(=O)C(=O)NC2CC2)N(C(=O)[C@@H](NC(=O)CC2CCCCC2)C(C)(C)C)C3)cc1Cl [Compound 709]	100 to 500	
CNC(=O)C(=O)[C@H](CC1CC1)NC(=O)[C@@H]1C[C@]2(CC(c3cccc(Cl)c3)=NO2)CN1C(=O)[C@@H](NC(=O)CC1CC2CCC1C2)C(C)(C)C (stereo partly shown) [Compound 716]	< 100	
CCC[C@H](NC(=O)[C@@H]1C[C@]2(CC(c3cc(C)c(OC)c(C)c3)=NO2)CN1C(=O)[C@@H](NC(=O)CC1CCCCC1)C(C)(C)C)C(=O)C(N)=O [Compound 724]	< 100	
CNC(=O)C(=O)[C@H](CC1CC1)NC(=O)[C@@H]1C[C@]2(CC(c3cc(C)c(OC)c(C)c3)=NO2)CN1C(=O)[C@@H](NC(=O)CC1CCCCC1)C(C)(C)C [Compound 725]	< 100	
COc1c(C)cc(C2=NO[C@]3(C2)C[C@@H](C(=O)N[C@@H](CC2CC2)C(=O)C(N)=O)N(C(=O)[C@@H](NC(=O)CC2CCCCC2)C(C)(C)C)C3)cc1C [Compound 726]	< 100	
CCC[C@H](NC(=O)[C@@H]1C[C@]2(CC(c3cc(C)c(OC)c(C)c3)=NO2)CN1C(=O)[C@@H](NC(=O)CC1CCCCCC1)C(C)(C)C)C(=O)C(N)=O [Compound 728]	< 100	
COc1c(C)cc(C2=NO[C@]3(C2)C[C@@H](C(=O)N[C@@H](CC2CC2)C(=O)C(N)=O)N(C(=O)[C@@H](NC(=O)CC2CCCCCC2)C(C)(C)C)C3)cc1C [Compound 730]	< 100	
CCC[C@H](NC(=O)[C@@H]1C[C@]2(CC(c3cc(C)c(OC)c(C)c3)=NO2)CN1C(=O)[C@@H](NC(=O)CC(C)(C)C)C(C)(C)C)C(=O)C(N)=O [Compound 733]	< 100	
CNC(=O)C(=O)[C@H](CC1CC1)NC(=O)[C@@H]1C[C@]2(CC(c3cccc(Cl)c3)=NO2)CN1C(=O)[C@@H](NC(=O)[C@H]1C[C@@H]1c1cccs1)C(C)(C)C [Compound 739]	< 100	
CNC(=O)C(=O)[C@H](CC1CCC1)NC(=O)[C@@H]1C[C@]2(CC(c3cccc(Cl)c3)=NO2)CN1C(=O)[C@@H](NC(=O)CC1CCCCC1)C(C)(C)C [Compound 741]	< 100	
CNC(=O)C(=O)[C@H](CC1CC1)NC(=O)[C@@H]1C[C@]2(CC(c3cc(Cl)c(OC)cc3OC)=NO2)CN1C(=O)[C@@H](NC(=O)OC1CCCC1)C(C)(C)C [Compound 744]	< 100	
COc1cc(OC)c(C2=NO[C@]3(C2)C[C@@H](C(=O)N[C@@H](CC2CC2)C(=O)C(=O)NC2CC2)N(C(=O)[C@@H](NC(=O)OC(C)(C)C)C(C)(C)C)C3)cc1Cl [Compound 745]	< 100	
CNC(=O)C(=O)[C@H](CC1CC1)NC(=O)C1C[C@]2(CC(c3cccc(Cl)c3)=NO2)CN1C(=O)[C@@H](NC(=O)C1CCC1)C(C)(C)C (stereo partly shown) [Compound 749]	< 100	

SMILES	Ki [1] [nM]	other results
CNC(=O)C(=O)[C@H](CC1CC1)NC(=O)[C@@H]1C[C@]2(CC(c3cccc(Cl)c3)=NO2)CN1C(=O)[C@@H](NC(=O)[C@H]1C[C@@H]1C(C)C)C(C)(C)C [Compound 755]	< 100	
COc1c(C)cc(C2=NO[C@]3(C2)C[C@@H](C(=O)N[C@@H](CC2CC2)C(=O)C(=O)NC2CC2)N(C(=O)[C@@H](NC(=O)OC(C)(C)C)C(C)(C)C)C3)cc1C [Compound 757]	< 100	
CCC[C@H](NC(=O)[C@@H]1C[C@]2(CC(c3cc(C)c(OC)c(C)c3)=NO2)CN1C(=O)[C@@H](NC(=O)OC1CCCC1)C(C)(C)C)C(=O)C(N)=O [Compound 760]	< 100	
COc1c(C)cc(C2=NO[C@]3(C2)C[C@@H](C(=O)N[C@@H](CC2CC2)C(=O)C(=O)NC2CC2)N(C(=O)[C@@H](NC(=O)CC2CCCCC2)C(C)(C)C)C3)cc1C [Compound 764]	100 to 500	
CNC(=O)C(=O)C(CC1CC1)NC(=O)[C@@H]1C[C@]2(CC(c3cc(C)c(OC)c(C)c3)=NO2)CN1C(=O)[C@@H](NC(=O)OC1CCCC1)C(C)(C)C (stereo partly shown) [Compound 768]	100 to 500	
COc1c(C)cc(C2=NO[C@]3(C2)C[C@@H](C(=O)NC(CC2CC2)C(=O)C(N)=O)N(C(=O)[C@@H](NC(=O)OC2CCCC2)C(C)(C)C)C3)cc1C (stereo partly shown) [Compound 769]	100 to 500	
CCC[C@H](NC(=O)[C@@H]1C[C@]2(CC(c3ccc(NC)c(Cl)c3)=NO2)CN1C(=O)[C@@H](NC(=O)CC1CCCCC1)C(C)(C)C)C(=O)C(=O)NC1CC1 [Compound 771]	< 100	
CCC[C@H](NC(=O)[C@@H]1C[C@]2(CC(c3cccc(Cl)c3)=NO2)CN1C(=O)[C@@H](NC(=O)CC(C)(C)OC)C(C)(C)C)C(=O)C(=O)NC1CC1 [Compound 772]	< 100	
CNC(=O)C(=O)[C@H](CC1CC1)NC(=O)[C@@H]1C[C@]2(CC(c3cccc(Cl)c3)=NO2)CN1C(=O)[C@@H](NC(=O)CC(C)(C)OC)C(C)(C)C [Compound 773]	100 to 500	
CNC(=O)C(=O)[C@H](CC1CC1)NC(=O)[C@@H]1C[C@]2(CC(c3cccc(Cl)c3)=NO2)CN1C(=O)[C@@H](NC(=O)CC1CC2CCC1C2)C(C)(C)C (stereo partly shown) [Compound 777]		Ki (read-out: Enzyme Assay 2 (HCV NS3 Peptide Cleavage Assay) activity, apparent Ki class): < 100 nM
CCC[C@H](NC(=O)[C@@H]1C[C@]2(CC(c3cccc(Cl)c3)=NO2)CN1C(=O)[C@@H](NC(=O)CC1CC2CCC1C2)C(C)(C)C)C(=O)C(N)=O (stereo partly shown) [Compound 779]	< 100	
CCC[C@H](NC(=O)[C@@H]1C[C@]2(CC(c3cc(C)c(OCC)c(Cl)c3)=NO2)CN1C(=O)[C@@H](NC(=O)OC1CCCC1)C(C)(C)C)C(=O)C(=O)NC [Compound 785]	< 100	
CCC[C@H](NC(=O)[C@@H]1C[C@]2(CC(c3cccc(Cl)n3)=NO2)CN1C(=O)[C@@H](NC(=O)CC1CCCCC1)C(C)(C)C)C(=O)C(=O)NC1CC1 [Compound 786]	100 to 500	
CNC(=O)C(=O)[C@H](CC1CC1)NC(=O)[C@@H]1C[C@]2(CC(c3cc(C)c(OC)c(C)c3)=NO2)CN1C(=O)[C@@H](NC(=O)CC1CCCCC1)C(C)(C)OC [Compound 788]	< 100	
CNC(=O)C(=O)[C@H](CC1CC1)NC(=O)[C@@H]1C[C@]2(CC(c3cc(C)c(OC)c(C)c3)=NO2)CN1C(=O)[C@@H](NC(=O)[C@@H]1CC1c1ccccc1)C(C)(C)C (stereo partly shown) [Compound 798]		Ki [2]: < 100 nM
CCC[C@H](NC(=O)[C@@H]1C[C@]2(CC(c3cc(Cl)c(OC)cc3OC)=NO2)CN1C(=O)[C@@H](NC(=O)[C@@H]1CC1c1ccccc1)C(C)(C)C)C(=O)C(N)=O (stereo partly shown) [Compound 801]		Ki [2]: < 100 nM
CCC[C@H](NC(=O)[C@@H]1C[C@]2(CC(c3cc(Cl)ccc3N(C)C)=NO2)CN1C(=O)[C@@H](NC(=O)CC1CCCCC1)C(C)(C)C)C(=O)C(=O)NC1CC1 [Compound 803]		Ki [2]: 100 to 500 nM
CC(C)(C)[C@H](NC(=O)[C@H]1C[C@@H]1c1ccccc1)C(=O)N1C[C@@]2(CC(c3cccc4cccnc34)=NO2)C[C@H]1C(=O)N[C@@H](CC1CC1)C(=O)C(N)=O [Compound 805]		Ki [2]: < 100 nM
CC(C)(C)[C@H](NC(=O)[C@@H]1C[C@H]1c1ccccc1)C(=O)N1C[C@@]2(CC(c3cccc4cccnc34)=NO2)C[C@H]1C(=O)N[C@@H](CC1CC1)C(=O)C(N)=O [Compound 806]		Ki [2]: < 100 nM
CNC(=O)C(=O)[C@H](CC1CC1)NC(=O)[C@@H]1C[C@]2(CC(c3cccc4cccnc34)=NO2)CN1C(=O)[C@@H](NC(=O)[C@H]1C[C@@H]1c1ccccc1)C(C)(C)C [Compound 807]		Ki [2]: 100 to 500 nM
COc1c(C)cc(C2=NO[C@]3(C2)C[C@@H](C(=O)N[C@@H](CC2CC2)C(=O)C(N)=O)N(C(=O)[C@@H](NC(=O)[C@@H]2C[C@H]2c2ccccc2)C(C)(C)C)C3)cc1Cl [Compound 811]		Ki [2]: < 100 nM
CCOc1c(C)cc(C2=NO[C@]3(C2)C[C@@H](C(=O)N[C@@H](CC2CC2)C(=O)C(=O)NC)N(C(=O)[C@@H](NC(=O)OC2CCCC2)C(C)(C)C)C3)cc1Cl [Compound 817]		Ki [2]: < 100 nM
CCC[C@H](NC(=O)[C@@H]1C[C@]2(CC(c3cc(Cl)c(OCC)cc3OC)=NO2)CN1C(=O)[C@@H](NC(=O)CC1CCCCC1)C(C)(C)C)C(=O)C(=O)NC1CC1 [Compound 818]		Ki [2]: < 100 nM
